Measurements reported in PMC7467771, “Lipophilic Arginine Esters: The Gateway to Preservatives without Side Effects” (Molecular Pharmaceutics, 2020).

Assays:
[1] = critical micelle concentration (CMC), pyrene fluorescent method; type: physicochemical; conditions: aqueous solution, 37 °C, 3 h
Description: The critical micelle concentration (CMC) is an important solution property of any amphiphilic compound and can be defined as the minimum concentration at which micelles start to form. The CMC of Arg-esters was determined using a pyrene fluorescent method as described in a previous publication.[15] Methanol solution of pyrene (2 μM) was added to several vials (250 μL per vial) and evaporated overnight to leave thin dried films of pyrene. Aqueous solutions of Arg-esters were prepared in a wide concentration range and were added to individual vials containing pyrene films in a 500 μL volume. The samples were left stirring at 400 rpm, 37 °C. After 3 h, the fluorescence of each sample was measured at the excitation wavelength of 334 nm, and emissions were taken at 372 (I1) nm and 393 nm (I3). A graph was plotted between the fluorescent intensity ratio (I3/I1) and the log concentration of Arg-ester. Then, from the resulting curve for each Arg-ester, the “CMC value” was calculated. For the calculation of the CMC, the segmental linear regression method was used, and CMC values were obtained as the concentration corresponding to the intercept of the extrapolations of the first segment and the rapidly varying second segment of the I3/I1 versus log concentration plot. […]

[2] = tested on: lipase from porcine pancreas; assay: degradation of arginine esters by lipase (pH-stat titration); type: in vitro ADME; conditions: within 3 h, 1 mM ester, pH 6.8, 37 °C
Description: Lipase-catalyzed hydrolytic degradation of Arg-OL and Arg-DT esters was carried out using a previously described experimental setup.[16] Digestion medium consisted of 2 mM Tris buffer with 5 mM CaCl2 and 150 mM NaCl. The medium pH was adjusted to 6.8. Lipase solution was freshly prepared before the experiment as follows: 0.5 g of lipase was mixed for 10 min in 10 mL of digestion medium, followed by centrifugation at 12 000 rpm and 4 °C for 15 min. The supernatant was collected for the degradation test and ice-stored until use. For the degradation test, solutions of Arg-OL and Arg-DT were prepared in the concentration of 1 mM in digestion buffer, and the pH was adjusted to 6.8 using 0.5 M NaOH. Thereafter, 2 mL of lipase solution was added to 18 mL of the Arg-surfactant solution to initiate ester degradation under continuous stirring at 37 °C. The ester hydrolysis was reflected by monitoring the drop in pH due to the release of arginine and titrated to keep the pH at 6.8 with the addition of 0.5 M NaOH. The experiment was continued for 3 h. Back-titration was also performed at the end of the experiment by raising the pH to 9, and additional consumption of the NaOH volume reflected the nonionized form of an amino acid. […]

Caco-2 cells = assay: resazurin assay, cytotoxicity; type: cell-based; conditions: for cytotoxicity (samples showing >80% cell viability considered nontoxic): Caco-2, 4 h incubation, at 3000 μg mL^–1; for EC50: Homo sapiens, Caco-2, 4 h, read-out: EC50 (concentration causing 50% cell death)
Description: The resazurin assay was used to determine the cytotoxic potential of Arg-esters according to a previous method with some minor modifications.[15] Caco-2 cells were seeded in a 24-well cell culture plate at 25 000 cells per well density and kept in an incubator at 37 °C under a 95% relative humidity environment and 5% CO2 level. Minimum essential medium (MEM) supplemented with streptomycin (0.1 mg […]), penicillin (100 units […]), and fetal calf serum (FCS) 10% (v/v) was used for growing cells. During a growth period of 14 days, the medium was replaced every other day. On the day of the experiment, test solutions of Arg-OL and Arg-DT esters were prepared in 25 mM HBS (HEPES buffered saline) buffer (pH 7.4) in the concentration range of 1000–3000 μg mL^–1. For comparison, the same concentrations of BAC and cetrimide were also prepared in HBS. HBS without any addition was used as a positive control, and Triton X-100 (2%, v/v) in HBS was used as a negative control. The growth medium from all wells of the cell culture plate was removed, and cells were washed three times with HBS preheated at 37 °C. Each test solution and controls were then added to individual wells in a volume of 500 μL, and the cell culture plate was incubated under the same conditions. After 4 h, the solution from each well was removed, and cells were washed with HBS (pH 7.4) preheated at 37 °C. Then, 500 μL of resazurin (2.2 mM) per well was added and incubated for further 3 h under the same conditions. Afterward, the fluorescence of the supernatant from each well was measured at the excitation wavelength of 540 nm and an emission wavelength of 590 nm. Cell viability was calculated by the equation: [drawing 4]

[3] = tested on: Bacillus subtilis ATCC 6633; assay: disk diffusion method; type: cell-based; conditions: Bacillus subtilis, ATCC6633, read-out: zones of inhibition
Description: (§1) Following bacterial strains were used for antimicrobial susceptibility testing: Escherichia coli ATCC 25922, Staphylococcus aureus ATCC 29213, Bacillus subtilis ATCC 6633, and Enterococcus faecalis ATCC 19433, which were obtained from the American Type Culture Collection (ATCC, Virginia, USA).
(§2) The disk diffusion method was used for the initial assessment of the antimicrobial activity of Arg-esters. Mueller Hinton agar (MHA, Biomerieux) medium was prepared according to the manufacturer protocol and poured into Petri dishes. All testing microorganisms were dissolved in saline and set to a 0.5 McFarland standard turbidity. This corresponds to a bacterial concentration of 1.5 × 10^8 colony-forming units per milliliter (CFU mL^–1). The bacterial suspension was then swabbed over solidified MHA Petri dishes ensuring homogeneous distribution. The test solutions of Arg-OL, Arg-DT, BAC, and cetrimide were prepared in water with 10% (v/v) DMSO at a concentration of 10 mg mL^–1. Water with 10% (v/v) DMSO was used as a negative control. The diffusion disks of about 6 mm in diameter were prepared from Whatman filter paper. After immersing disks in the above-prepared test solutions, they were placed on MHA plates already swabbed with different bacteria. After overnight incubation of Petri dishes at 37 °C, clear zones of bacterial growth inhibition around disks were measured.

[4] = tested on: Enterococcus faecalis ATCC 19433; assay: disk diffusion method; type: cell-based; conditions: Enterococcus faecalis, ATCC19433, read-out: zones of inhibition
Description: as §1, §2

[5] = tested on: Escherichia coli ATCC 25922; assay: disk diffusion method; type: cell-based; conditions: Escherichia coli, ATCC25922, read-out: zones of inhibition
Description: as §1, §2

[6] = tested on: Staphylococcus aureus ATCC 29213; assay: disk diffusion method; type: cell-based; conditions: Staphylococcus aureus, ATCC29213, read-out: zones of inhibition
Description: as §1, §2

Row | Compound | critical micelle concentration (CMC) [1] | percentage of arginine ester cleaved by lipase [2] | cytotoxicity (samples showing >80% cell viability considered nontoxic) (Caco-2 cells) | EC50 (Caco-2 cells) | zone of inhibition at 10 µg/mL [3] | zone of inhibition at 10 µg/mL [4] | zone of inhibition at 10 µg/mL [5] | zone of inhibition at 10 µg/mL [6]
1 | CCCCCCCCC=CCCCCCCCCOC(=O)[C@@H](N)CCCNC(=N)N.O=C(O)C(F)(F)F [Arg-OL, Octadec-9-en-1-yl Argininate Trifluoroacetate] | 0.52 mM | 93% | cytotoxic | 2600 µg/mL | 16 mm | 18 mm | 9 mm | 19 mm
2 | CCCCCCCCCCCCC(CCCCCCCCCC)COC(=O)[C@@H](N)CCCNC(=N)N.O=C(O)C(F)(F)F (stereo partly shown) [Arg-DT, 2-Decyltetradecyl Argininate Trifluoroacetate] | 0.013 mM | 85% | noncytotoxic | 4500 µg/mL | 18 mm | 16 mm | 9 mm | 16 mm
